Measurements published in publication PMC10739246 (ACS Bio & Med Chem Au, 2023).
Converted amounts (≈) assume the structure as drawn. Like-named read-outs stand apart in the source and are kept apart here.

Assays:
[1] = tested on: M. tuberculosis (MC26020); assay: microbe, parasite or virus in culture; assay type: cell-based, Mycobacterium tuberculosis; conditions: for MIC: Mycobacterium tuberculosis, read-out: MIC M. tuberculosis (MC26020)
E. coli (W3110) = assay: MIC, microdilution, E. coli W3110; assay type: cell-based, Escherichia coli
E. faecalis (ATCC 19433) = assay: MIC, E. faecalis ATCC 19433; assay type: cell-based, Enterococcus faecalis
P. aeruginosa (PAO1) = assay: MIC, microdilution, P. aeruginosa PAO1; assay type: cell-based, Pseudomonas aeruginosa
S. aureus (CCUG1800T) = assay: MIC, microdilution, S. aureus CCUG1800T; assay type: cell-based, Staphylococcus aureus
[2] = tested on: norfloxacin-resistant clinical isolate of E. coli; assay: MIC, microdilution, norfloxacin-resistant clinical isolate of E. coli; assay type: cell-based, Escherichia coli; conditions: read-out: MIC E. coli (norfloxacin-resistant strain)
[3] = tested on: K. pneumoniae (ATCC 10031); assay: MIC, K. pneumoniae ATCC 10031; assay type: cell-based, Klebsiella pneumoniae
[4] = tested on: S. aureus (ATCC 43300) MRSA; assay: MIC, microdilution, MRSA ATCC 43300; assay type: cell-based, Staphylococcus aureus; conditions: for MIC: norfloxacin-resistant strain
E. coli [5] = assay: microbe, parasite or virus in culture; conditions: Escherichia coli, read-out: MICC (MIC of the test compound alone)
E. coli [6] = tested on: E. coli
B. subtilis DSM402 [7] = assay: Peptidoglycan integrity assay (acetic acid/methanol fixation); conditions: 1x MIC; 30 min (cell wall inhibitors) or 60 min
B. subtilis DSM402 [8] = conditions: Table 2; cells treated with 1x MIC
[9] = tested on: cell wall biosynthesis in B. subtilis DSM402; assay: Summary of cell wall synthesis experiments; assay type: cell-based, Bacillus subtilis
MreB in B. subtilis MW10 = assay: MreB mobility assay; assay type: cell-based, Bacillus subtilis; conditions: B. subtilis MW10, 1 h of antibiotic exposure
Experimental: MreB is an actin homologue that forms filamentous structures along the lateral axis of the cell. It moves along the length of the cells in a spiraling pattern thereby driving lateral peptidoglycan synthesis.[36],[37] MreB mobility is sensitive to inhibition of peptidoglycan synthesis and so far, every cell wall synthesis inhibitor we tested abolished MreB movement (see Figure S70 for examples).
Expression of msfGFP-MreB was induced with 0.3% xylose. Pictures were taken after 1 h of antibiotic exposure. Two images of the same field of view were recorded 30 s apart and overlaid in ImageJ to visualize MreB mobility. A perfect overlap (yellow) indicates stalled MreB movement, while distinct red and green foci are indicative of MreB mobility. Scale bar 2 μm.
Fig. S70: MreB motility in B. subtilis MW10 after treatment with different cell wall synthesis inhibitors. Expression of GFP-MreB was induced with 0.3% xylose. Cells were treated with 1x […]
Two images of the same field of view were recorded 30 sec apart and overlaid in ImageJ to visualize MreB mobility. A perfect overlap (yellow) indicates stalled MreB movement while distinct red and green spots are indicative of MreB mobility. Scale bar 2 µm.

[10] = tested on: MurG in B. subtilis TNVS175; assay: MurG localization; assay type: cell-based, Bacillus subtilis; conditions: 1x MIC; 30 min (vancomycin) or 1 h;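 note: normal MurG forms small membrane spots and peptidoglycan inhibition gives large clusters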
B. subtilis DSM402 [11] = assay: Bacterial cytological profiling (BCP) in B. subtilis DSM402; assay type: cell-based, Bacillus subtilis
[12] = Escherichia coli, Gram-negative strain, average of duplicate experiments, read-out: MIC E. coli (W3110)
[13] = Enterococcus faecalis, ATCC19433
[14] = Klebsiella pneumoniae, ATCC10031
[15] = Gram-negative strain, average of duplicate experiments, read-out: MIC E. coli (W3110)
[16] = read-out: MIC S. aureus (CCUG1800T)
[17] = norfloxacin-resistant clinical isolate
[18] = interpretation of BCP in B. subtilis

## CCn1cc(C(=O)O)c(=O)c2cc(F)c(N3CCN(C(=O)CNc4ccc(Br)cc4)CC3)cc21 [4b]
[1]
  MIC: 3.76 µM (≈ 2 µg/mL)
E. coli (W3110); [12]
  MIC: 30.1 µM (≈ 16 µg/mL)
E. faecalis (ATCC 19433); [13]
  MIC: 7.52 µM (≈ 4 µg/mL)
P. aeruginosa (PAO1); Pseudomonas aeruginosa, PAO1
  MIC: 723 µM (≈ 384 µg/mL)
S. aureus (CCUG1800T); Staphylococcus aureus; Tab. S10, DNA gyrase side; strain not given, values equal S. aureus CCUG1800T of Table 1; read-out: MIC
  MIC: 1.88 µM (≈ 0.999 µg/mL)
S. aureus (CCUG1800T); Staphylococcus aureus; read-out: MIC S. aureus (CCUG1800T)
  MIC: 1.88 µM (≈ 0.999 µg/mL)
[2]; Escherichia coli
  MIC: > 964 µM
[3]; [14]
  MIC: > 964 µM
[4]; Staphylococcus aureus
  MIC: > 964 µM

## CCn1cc(C(=O)O)c(=O)c2cc(F)c(N3CCN(C(=O)Cn4ccnc4)CC3)cc21 [8a]
[1]
  MIC: 2.33 µM (≈ 0.996 µg/mL)
E. coli (W3110); [12]
  MIC: 4.67 µM (≈ 2 µg/mL)
E. coli (W3110); Escherichia coli, Tab. S10, topoisomerase IV side, strain not given, values equal E. coli W3110 of Table 1, read-out: MIC
  MIC: 4.67 µM (≈ 2 µg/mL)
E. faecalis (ATCC 19433); [13]
  MIC: 14 µM (≈ 6 µg/mL)
P. aeruginosa (PAO1); Pseudomonas aeruginosa, PAO1
  MIC: 150 µM (≈ 64 µg/mL)
S. aureus (CCUG1800T); Staphylococcus aureus, read-out: MIC S. aureus (CCUG1800T)
  MIC: 2.33 µM (≈ 0.996 µg/mL)
[2]; Escherichia coli
  MIC: 74.9 µM (≈ 32 µg/mL)
[3]; [14]
  MIC: 9.35 µM (≈ 4 µg/mL)
[4]; Staphylococcus aureus
  MIC: 299 µM (≈ 128 µg/mL)

## CCn1cc(C(=O)O)c(=O)c2cc(F)c(N3CCN(CN4C(=O)C(=O)c5cc(C)ccc54)CC3)cc21 [20b]
[1]
  MIC M. tuberculosis (MC26020): 129.94 µM (≈ 64 µg/mL)
E. coli (W3110); [15]
  MIC: 5.07 µM (≈ 2.5 µg/mL)
E. faecalis (ATCC 19433)
  MIC: 6.09 µM (≈ 3 µg/mL)
P. aeruginosa (PAO1)
  MIC: 16.24 µM (≈ 8 µg/mL)
S. aureus (CCUG1800T); [16]
  MIC: 32.48 µM (≈ 16 µg/mL)
[2]; [17]
  MIC: >1039.59 µM
[3]
  MIC: 3.04 µM (≈ 1.5 µg/mL)
[4]
  MIC: 259.89 µM (≈ 128 µg/mL)

## CCn1cc(C(=O)O)c(=O)c2cc(F)c(N3CCN(CN4C(=O)C(=O)c5cc(OC)ccc54)CC3)cc21 [20c]
[1]
  MIC M. tuberculosis (MC26020): >1006.88 µM
E. coli (W3110); [15]
  MIC: 4.91 µM (≈ 2.5 µg/mL)
E. faecalis (ATCC 19433)
  MIC: 251.72 µM (≈ 128 µg/mL)
P. aeruginosa (PAO1)
  MIC: 62.93 µM (≈ 32 µg/mL)
S. aureus (CCUG1800T); [16]
  MIC: 31.46 µM (≈ 16 µg/mL)
[2]; [17]
  MIC: 1006.88 µM (≈ 512 µg/mL)
[3]
  MIC: 503.44 µM (≈ 256 µg/mL)
[4]
  fold more active than norfloxacin: 6.3 fold
  MIC: 15.73 µM (≈ 8 µg/mL)

## CC(C)(N)[C@H](NC(=O)c1ccc(C#CC#C[C@@H]2C[C@H]2CO)cc1)C(=O)NO [ACHN-975, reference compound]
E. coli [5]
  MIC: 0.5 µg/mL
E. coli [6]; mupirocin alone 64 µg/mL
  FICM (MICMcheckerboard/MICM): 0.0469
E. coli [6]; with mupirocin, FICC+FICM
  FICI (fractional inhibitory concentration index): 0.2969

## N[C@@H]1CON=C1O [D-Cyc, D-cycloserine]
B. subtilis DSM402 [7]
  PG integrity: compromised
B. subtilis DSM402 [8]
  μM (concentration used, 1x MIC): 293.85 µM
[9]
  CWB inhibited?: yes
MreB in B. subtilis MW10
  MreB mobility: static with foci
[10]
  protein localization MurG: patchy

## CCCCCCCCCC(=O)N[C@@H](Cc1c[nH]c2ccccc12)C(=O)N[C@H](CC(N)=O)C(=O)N[C@@H](CC(=O)O)C(=O)N[C@@H]1C(=O)NCC(=O)N[C@@H](CCCN)C(=O)N[C@@H](CC(=O)O)C(=O)N[C@H](C)C(=O)N[C@@H](CC(=O)O)C(=O)NCC(=O)N[C@H](CO)C(=O)N[C@@H]([C@H](C)CC(=O)O)C(=O)N[C@@H](CC(=O)c2ccccc2N)C(=O)O[C@@H]1C [Dap, daptomycin, reference compound]
B. subtilis DSM402 [11]; 1x MIC, 1 h, DNA condensation
  DAPI: regular
B. subtilis DSM402 [11]; 1x MIC, 1 h, indicates cell lysis
  phase contrast: dark
B. subtilis DSM402 [11]; 1x MIC, 1 h, membrane stain
  FM4-64: patchy
B. subtilis DSM402 [11]; [18]
  gyrase inhibition: no
  membrane damage: yes
